Measured values reported in PubChem BioAssay (NCI).
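Each compound was tested at five concentrations against cells in 96-well plates for 48 hours. GI50 is the concentration that inhibits growth by half. Definition used: TGI = concentration required for complete inhibition of growth.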

What was measured:
Test in all cases: NCI anticancer screen, dose series, 48 h
[1] = tested on: HOP-62 NSCLC
[2] = tested on: OVCAR-8 ovarian
[3] = tested on: UACC-257 melanoma
[4] = tested on: CCRF-CEM leukemia
[5] = tested on: SNB-75 CNS
[6] = tested on: RXF 393 renal
[7] = tested on: UACC-62 melanoma
[8] = tested on: MCF7 breast
[9] = tested on: HOP-92 NSCLC
[10] = tested on: UO-31 renal
[11] = tested on: A498 renal
[12] = tested on: EKVX NSCLC
[13] = tested on: SN12C renal
[14] = tested on: DU-145 prostate
[15] = tested on: NCI-H23 lung
[16] = tested on: MALME-3M melanoma
[17] = tested on: CAKI-1 renal
[18] = tested on: SK-MEL-5 melanoma
[19] = tested on: T-47D breast
[20] = tested on: NCI-H460 lung
[21] = tested on: SK-MEL-28 melanoma
[22] = tested on: HT29 colon
[23] = tested on: HS 578T breast
[24] = tested on: IGROV1 ovarian
[25] = tested on: BT-549 breast
[26] = tested on: SW-620 colon
[27] = tested on: 786-0 renal
[28] = tested on: K-562 leukemia
[29] = tested on: NCI-H522 lung
[30] = tested on: OVCAR-3 ovarian
[31] = tested on: OVCAR-5 ovarian
[32] = tested on: OVCAR-4 ovarian
[33] = tested on: SF-268 CNS
[34] = tested on: HCT-15 colon
[35] = tested on: COLO 205 colon
[36] = tested on: M14 melanoma
[37] = tested on: PC-3 prostate
[38] = tested on: SF-295 CNS
[39] = tested on: ACHN renal
[40] = tested on: MDA-MB-435
[41] = tested on: SNB-19 CNS
[42] = tested on: HCT-116 colon
[43] = tested on: LOX IMVI melanoma
[44] = tested on: MDA-MB-231 breast
[45] = tested on: SK-OV-3 ovarian
[46] = tested on: MOLT-4 leukemia
[47] = tested on: RPMI-8226 leukemia
[48] = tested on: KM12 colon
[49] = tested on: NCI-H226 lung
[50] = tested on: SF-539 CNS
[51] = tested on: TK-10 renal
[52] = tested on: A549 NSCLC
[53] = tested on: U251 CNS
[54] = tested on: HCC-2998 colon
[55] = tested on: SK-MEL-2 melanoma
[56] = tested on: NCI/ADR-RES ovarian

## O=C(NN1C(=O)CSC12CCCCC2)c1[nH]c2ccc(F)cc2c1-c1ccccc1
[1]
  GI50: 19.2 µM
  TGI: 41.2 µM
[2]
  GI50: 18 µM
  TGI: 31.9 µM
[3]
  GI50: 23.3 µM
  TGI: 56.9 µM
[4]
  GI50: 29.7 µM
  TGI: 96.7 µM
[5]
  GI50: 18.5 µM
  TGI: 36.2 µM
[6]
  GI50: 14.6 µM
  TGI: 29.7 µM
[7]
  GI50: 15.2 µM
  TGI: 54.7 µM
[8]
  GI50: 19.4 µM
  TGI: 37.3 µM
[9]
  GI50: 17.8 µM
  TGI: 40.9 µM
[10]
  GI50: 27.8 µM
  TGI: 80.9 µM
[11]
  GI50: 27.1 µM
  TGI: 76.5 µM
[12]
  GI50: 83 µM
  TGI: > 100 µM
[13]
  GI50: 18.2 µM
  TGI: 37.5 µM
[14]
  GI50: 22.6 µM
  TGI: 45.2 µM
[15]
  GI50: 18.4 µM
  TGI: 50.9 µM
[16]
  GI50: 20.2 µM
  TGI: 43.5 µM
[17]
  GI50: 31.9 µM
  TGI: > 100 µM
[18]
  GI50: 41.4 µM
  TGI: > 100000 nM
[19]
  GI50: 35.6 µM
  TGI: > 100 µM
[20]
  GI50: 26.6 µM
  TGI: 77.7 µM
[21]
  GI50: 28.2 µM
  TGI: 93.2 µM
[22]
  GI50: 17.8 µM
  TGI: 36.2 µM
[23]
  GI50: 21.8 µM
  TGI: 82.8 µM
[24]
  GI50: 14.4 µM
  TGI: 32.9 µM
[25]
  GI50: 33.8 µM
  TGI: > 100 µM
[26]
  GI50: 26.6 µM
  TGI: 87.5 µM
[27]
  GI50: 26 µM
  TGI: 49.8 µM
[28]
  GI50: 21.3 µM
  TGI: 52.7 µM
[29]
  GI50: 19.1 µM
  TGI: 58.7 µM
[30]
  GI50: 18.8 µM
  TGI: 32.9 µM
[31]
  GI50: 37.6 µM
  TGI: > 100 µM
[32]
  GI50: 22.9 µM
  TGI: 70.9 µM
[33]
  GI50: 22.7 µM
  TGI: 59.6 µM
[34]
  GI50: 32.3 µM
  TGI: > 100 µM
[35]
  GI50: 36.8 µM
  TGI: > 100 µM
[36]
  GI50: 38.2 µM
  TGI: > 100 µM
[37]
  GI50: 18.8 µM
  TGI: 35.9 µM
[38]
  GI50: 22.2 µM
  TGI: 40 µM
[39]
  GI50: 20 µM
  TGI: 42.9 µM
[40]
  GI50: 21.8 µM
  TGI: 52.9 µM
[41]
  GI50: 19.8 µM
  TGI: 44.2 µM
[42]
  GI50: 16.7 µM
  TGI: 31.5 µM
[43]
  GI50: 24.1 µM
  TGI: 61.9 µM
[44]
  GI50: 18.8 µM
  TGI: 45.8 µM
[45]
  GI50: 35.8 µM
  TGI: > 100 µM
[46]
  GI50: 13.9 µM
  TGI: 41.7 µM
[47]
  GI50: 15.7 µM
  TGI: 37 µM
[48]
  GI50: 17.1 µM
  TGI: 32.6 µM
[49]
  GI50: 28.1 µM
  TGI: 77 µM
[50]
  GI50: 21.8 µM
  TGI: 37.2 µM
[51]
  GI50: 19.4 µM
  TGI: 35.7 µM
[52]
  GI50: 16.7 µM
  TGI: 30.6 µM
[53]
  GI50: 18.2 µM
  TGI: 39.2 µM
[54]
  GI50: 34.8 µM
  TGI: 92.5 µM
[55]
  GI50: 34.6 µM
  TGI: > 100 µM

## COc1cc2c(cc1OCCCCOc1cc3c(cc1OC)C(=O)N1CCC[C@H]1CN3)N=C[C@@H]1CCCN1C2=O
[1]
  GI50: 3.36 µM
  TGI: > 100 µM
[2]
  GI50: 3.37 µM
  TGI: > 33.1 µM
[3]
  GI50: 5.64 µM
  TGI: > 100 µM
[4]
  GI50: 0.243 µM
[5]
  GI50: 3.58 µM
  TGI: 16.9 µM
[6]
  GI50: 0.29 µM
  TGI: 1.45 µM
[7]
  GI50: 1.3 µM
  TGI: 3.03 µM
[8]
  GI50: 0.346 µM
  TGI: 1.76 µM
[9]
  GI50: 0.366 µM
  TGI: 3.3 µM
[10]
  GI50: 2.89 µM
  TGI: > 23.9 µM
[12]
  GI50: 5.13 µM
  TGI: 76.5 µM
[13]
  GI50: 2.29 µM
  TGI: 18.2 µM
[14]
  GI50: 2.46 µM
  TGI: > 100 µM
[15]
  GI50: 2.22 µM
  TGI: 5.8 µM
[16]
  GI50: 1.47 µM
  TGI: 4.1 µM
[17]
  GI50: 0.344 µM
[18]
  GI50: 0.463 µM
  TGI: 1620 nM
[19]
  GI50: 0.512 µM
  TGI: > 100 µM
[56]
  GI50: 45 µM
  TGI: > 100 µM
[20]
  GI50: 2.92 µM
  TGI: > 100 µM
[21]
  GI50: 2.86 µM
  TGI: 11.8 µM
[22]
  GI50: 2.37 µM
  TGI: > 23.2 µM
[23]
  GI50: 0.823 µM
  TGI: 2.63 µM
[24]
  GI50: 2.42 µM
  TGI: > 27 µM
[25]
  GI50: 0.357 µM
  TGI: 5.75 µM
[26]
  GI50: 0.931 µM
  TGI: > 22.9 µM
[27]
  GI50: 2.94 µM
  TGI: > 100 µM
[28]
  GI50: 0.174 µM
  TGI: > 37.9 µM
[29]
  GI50: 0.072 µM
  TGI: 0.386 µM
[30]
  GI50: 2.05 µM
  TGI: 6.38 µM
[31]
  GI50: 3.09 µM
  TGI: > 28.7 µM
[32]
  GI50: 4.61 µM
  TGI: > 100 µM
[33]
  GI50: 0.344 µM
  TGI: 4.95 µM
[34]
  GI50: 25.2 µM
  TGI: > 93.3 µM
[35]
  GI50: 1.3 µM
  TGI: 5.33 µM
[36]
  GI50: 2.37 µM
  TGI: 7.19 µM
[37]
  GI50: 2.02 µM
  TGI: 97.9 µM
[38]
  TGI: 1.2 µM
[39]
  GI50: 2.62 µM
  TGI: 29 µM
[40]
  GI50: 0.464 µM
  TGI: 10.4 µM
[41]
  GI50: 3.16 µM
  TGI: > 100 µM
[42]
  GI50: 2.37 µM
  TGI: > 100 µM
[43]
  GI50: 1.07 µM
  TGI: > 32.5 µM
[44]
  GI50: 1.05 µM
  TGI: 5.26 µM
[45]
  GI50: 7.06 µM
  TGI: > 100 µM
[46]
  GI50: 0.282 µM
  TGI: > 100 µM
[47]
  GI50: 0.575 µM
  TGI: 4.84 µM
[48]
  GI50: 1.97 µM
  TGI: 86.2 µM
[49]
  GI50: 1.94 µM
  TGI: 4.49 µM
[50]
  GI50: 0.419 µM
  TGI: 2.89 µM
[51]
  GI50: 1.64 µM
  TGI: 8.38 µM
[52]
  GI50: 9.21 µM
  TGI: > 100 µM
[53]
  GI50: 0.392 µM
  TGI: > 100 µM
[54]
  GI50: 2 µM
  TGI: 5.64 µM
[55]
  GI50: 0.826 µM
  TGI: > 100 µM
